{"source": "patent US20250032624A1", "about": "“SMALL MOLECULE DEGRADATION METHODS FOR TREATING ALS/FTD” (University of Florida Research Foundation, Incorporated, priority 2021, published 2025)", "key": {"[1]": {"system": "r(G4C2)^exp-containing intron 1 of C9orf72", "test": "C9orf72 transcript RT-qPCR in c9ALS/FTD patient-derived LCLs", "format": "cell-based, human", "details": "500 nM", "protocol": "(§1) Measuring Levels of C9orf72 and C9orf72 Variants by RT-qPCR. LCLs and iPSCs were seeded in 6-well plates (˜10^6 cells in 2 mL of Basal medium) and incubated overnight at 37° C. with 5% CO2. LCLs were then treated with compound for 4 days without media changes; patient-derived iPSCs were seeded at ˜80% confluency and treated, as described above. Treatment with either a G4C2-ASO or Control-ASO (100 nM) was used as a control. ASO transfection was achieved using Lipofectamine RNAiMax (Life Technologies), following the manufacturer's protocol. After 4 days of treatment (with either compound or ASO), total RNA was extracted using the Quick-RNA Miniprep Kit (Zymo Research). RNA was quantified via Nanodrop and ˜1 μg of total RNA was reverse transcribed using qScript (Quantbio), according to the manufacturer's guidelines. RT-qPCR was performed on a QuantStudio™ Real-Time PCR Instrument (Applied Biosystems) using Power SYBR Green Master Mix (Applied Biosystems). Expression levels of mRNAs were normalized to GAPDH. See Table 2 for a list of primers used."}, "[2]": {"system": "canonical translation", "test": "Canonical translation (mCherry) in transfected HEK293T cells", "format": "cell-based", "protocol": "FIG. 8A is a schematic of co-transfection of a No ATG-d(G4C2)66-GFP (SEQ ID NO: 45) plasmid and an ATG-mCherry plasmid into HEK293T cells allows for RAN translation to be measured based on the GFP signal. The mCherry signal measures canonical translation. […] Error bars represent SD.\nHEK293T cells were cultured according to the methods described above. After reaching ˜80% confluency, HEK293T cells were batch-transfected, according to the manufacturer's protocol, in 100 mm dishes using the Lipofectamine 3000 transfection system (Thermo Fischer) for 5 hours with […] of a plasmid encoding r(G4C2)66-no ATG-nano-luciferase and 1 μg of a plasmid encoding SV40-Firefly luciferase (Life Technologies). Cells were seeded into a 384-well plate and incubated overnight. Compounds were treated in <0.1% DMSO final concentration for 24 hours. RAN and canonical translation were measured using a Dual-Luciferase® Reporter Assay System (Promega) following the manufacturer's protocol. Experiments were performed as biological triplicates (n=3). […] in untransfected cells were measured to determine the background signal."}, "[3]": {"system": "r(GGCC)8", "test": "Affinity by MST, base-paired control r(GGCC)8", "format": "binding", "details": "base-paired control r(GGCC)8, concentrations up to 20 μM", "protocol": "Affinity measurements were performed by MST using a Monolith NT.115 system (NanoTemper Technologies) with 5′-Cy5-labeled r(G4C2)8 (SEQ ID NO: 1), 5′-Cy5-labeled d(G4C2)8 (SEQ ID NO: 1), and 5′-Cy5-labeled base pair control r(G2C2)4GAAA(G2C2)4 (SEQ ID NO: 49). All oligos were deprotected according to the manufacturer's recommended protocol. Samples were prepared as previously described^30. Briefly, RNA or DNA (5 nM) was folded in 1×MST Buffer (8 mM Na2HPO4, 185 mM NaCl, 1 mM EDTA) by heating at 95° C. for 5 minutes and slowly cooling to room temperature. Tween-20 was then added to a final concentration of 0.05% (v/v). Serial dilutions of compound in 1×MST Buffer containing 5 nM folded nucleic acid were then carried out to yield the desired compound concentrations. Samples were incubated for 90 minutes at room temperature and then loaded into premium capillaries (NanoTemper Technologies). The following parameters were used on the Monolith NT.115 system: 10% LED, 20-80% MST power, Laser-On time=30 s, Laser-Off time=5 seconds. Fluorescence was detected using excitation wavelengths of 605-645 nm and emission wavelengths of 680-685 nm. The resulting data were analyzed by thermophoresis analysis and fit using the quadratic binding equation in the MST analysis software (NanoTemper Technologies). The dissociation constant was determined using Equation 1. […]"}, "[4]": {"system": "β-actin", "test": "β-actin abundance in brain of -/-PWR500 (WT) mice", "format": "in vivo, mouse", "protocol": "(§2) A total of 20 age- and gender-matched mice (12 +/+PWR500 [5 Male and 7 Female] and 8 WT [4 Male and 4 Female]), ranging from 18-21 weeks old were used in therapeutic efficacy studies (Table 4). Mice were treated with a single bolus injection of 33 nmol of compound 2 formulated in 1% (v/v) DMSO/99% water, administered by an intracerebroventricular injection (ICV). Three weeks post injection, mice were euthanized, and tissue was harvested for study.\nPostmortem brain tissue was harvested and sliced along the sagittal plane at the midline. The left hemisphere was frozen for RNA and protein analysis. Frozen brain tissue was homogenized in 300 μL Tris-EDTA buffer with a 1:5 w/v ratio of 2× protease and phosphatase inhibitors, as was done for RNA analysis of the tissue. Half of the homogenized tissue (150 μL) was mixed with 2× Lysis Buffer (50 mM Tris, pH 7.4, 250 mM NaCl, 2% (v/v) Triton X-100, and 4% (w/v) SDS) and sonicated at 1 second on/off intervals at 30% for a total of 15 seconds. Detergent from was removed using a Pierce™ Detergent Removal Spin Column 0.5 mL (Thermo Scientific) according to the manufacturer's protocol. Protein concentrations were then measured by BCA assay (Pierce Biotechnology) and poly(GP) was measured as described above for the electrochemical luminescent sandwich immunoassay."}, "[5]": {"system": "r(G4C2)^exp-containing C9orf72 transcript", "test": "C9orf72 variants by RT-qPCR in brain of +/+PWR500 BAC mice", "format": "in vivo, mouse", "details": "3 weeks", "protocol": "as §2\nPostmortem brain tissue was harvested and sliced along the sagittal plane at the midline. The left hemisphere was frozen for RNA and protein analysis. Frozen brain tissue was homogenized in 300 μL Tris-EDTA buffer with a 1:5 w/v ratio of 2× Protease and Phosphatase Inhibitors. RNA was extracted from half of the homogenized tissue solution (150 μL) using Triazol LS (added at a 1:3 ratio to the homogenized tissue). The Triazol/tissue solution was centrifuged for 15 minutes at 16,000 rpm and the supernatant was collected. An equal volume of 100% ethanol was added to the supernatant, and RNA was purified using the Direct-zol RNA Kit (Zymo Research) per the manufacturer's protocol. RT-qPCR was then performed as described above. Expression levels of mRNAs were normalized to mouse β-actin."}, "[6]": {"system": "C9orf72 intron 1", "test": "C9orf72 transcript RT-qPCR in LCLs from healthy donors", "format": "cell-based, human", "protocol": "as §1"}, "[7]": {"details": "single ICV injection of 10 mg/kg, total brain tissue"}}, "data": [{"smiles": "CCOC(=O)C1=C(Nc2ccccc2)S/C(=C\\c2ccc(OCCOCCOCCOCCNC(=O)CCCOc3ccc4c(c3)c3cc5c(C(=O)N[C@H](C)CN(C)C)nccc5c(C)c3n4C)c(O)c2)C1=O", "note": "[ALS Compound Formula I]", "values": [{"measurement": "reduction in C9orf72 intron 1 abundance", "setting": "[1]", "value": "~50", "unit": "%"}, {"measurement": "effect on mCherry signal (canonical translation)", "setting": "[2]", "value": "no effect"}, {"measurement": "saturable binding", "setting": "[3]", "value": "No saturable binding"}, {"measurement": "β-actin abundance", "setting": "[4]", "value": "no reduction"}, {"measurement": "decrease of C9orf72 intron 1 abundance", "setting": "[5]; [7]", "value": "~25", "unit": "%"}, {"measurement": "decrease of exon 2-3 abundance", "setting": "[5]; [7]", "value": "~20", "unit": "%"}, {"measurement": "exon 1b abundance", "setting": "[5]; single ICV injection", "value": "unchanged"}, {"measurement": "exon 1b to exon 2 junction (human C9orf72 abundance)", "setting": "[5]; single ICV injection", "value": "unchanged"}, {"measurement": "effect on C9orf72 intron 1 levels", "setting": "[6]", "value": "did not reduce"}]}]}
